Earlier results in patent US11633350B2, “Hypotonic microbicidal formulations and methods of use” (priority 2014, dated 2023).

Experiments:
HIV = conditions: PK/PD models

For `C[C@H](Cn1cnc2c(N)ncnc21)OCP(=O)(O)O` [tenofovir, (R)-9-(2-phosphonylmethoxypropyl)adenine], the “plasma concentration associated with 90% protection (EC90)” value (HIV) is given as 0.107 µg/mL.

For `CC(C)OC(=O)OCOP(=O)(CO[C@H](C)Cn1cnc2c(N)ncnc21)OCOC(=O)OC(C)C.O=C(O)/C=C/C(=O)O` [TDF, 2,4,6,8-Tetraoxa-5-phosphanonanedioic acid, 5-[[(1R)-2-(6-amino-9H-purin-9-yl)-1-methylethoxy]methyl]-, bis(1-methylethyl) ester, 5-oxide, (2E)-2-butenedioate (1:1)], the “systemic (blood) TFV peak (Cmax) concentration” value (after a single oral TDF dose) is listed as 350 ng/mL, the time to protection (in vivo) is listed as 3 days and the “time to achieve protective concentrations of TFV-DP in tissue” value (in vivo, po) is listed as “one week”.
